Source: a melting point compilation (Tetko et al.; mined from patent text by program, amines drawn as free bases though some values may be those of a salt)

SMILES	melting point [°C]
Cc1c(CC(c2ccccc2)c2ccccc2)ncn1C(c1ccccc1)(c1ccccc1)c1ccccc1	205 to 206
Brc1ccc(-c2cc3nccnc3[nH]2)cc1	326 to 329
CCOc1cc(C(C)(c2cc(OCC)c(O)c(OCC)c2)c2cc(OCC)c(O)c(OCC)c2)cc(OCC)c1O	78
CC(C)c1ccc(N2Cc3ccc([N+](=O)[O-])cc3C2=O)cc1	225 to 227
C1=C(c2c[nH]c3ncccc23)CCN(CCOc2cccc3ncccc23)C1	202 to 205
COc1ccccc1Oc1c(NS(=O)(=O)c2ccc(C(C)(C)C)cc2)nc(NCCN(C)C)nc1OCCOC1CCCCO1 (stereo not given)	82 to 86
CCOC(=O)c1nc(C)n2c1CN=C(c1ccccn1)c1cc(Br)ccc1-2	240 to 243
CN1CCN(c2cccc3c2C[C@H](NC(=O)C2CCCCC2)CC3)CC1	183 to 184
CCC(CC)c1ccc(Cl)c2nc3n(c12)CCCCN3c1cccc2c1OC(F)(F)O2	156 to 158
O=C(Nc1cccc2c1C(=O)c1c-2n[nH]c1C1CCN(C(=O)Oc2ccccc2)CC1)NN1CCOCC1	250 to 252
N#Cc1ccc(C(=C2CCCCCC2)c2nc[nH]n2)cc1	79 to 80
Cc1c2c(c(C(=O)c3ccc(C(C)C)cc3)c(C)c1NC(=O)CC(C)(C)C)OC(C)(C)C2	194 to 195
CCCCCCCCCCCCCCCC(=O)OC[C@H](O)COC(C)=O	37 to 37.5
CC12OCC(CO)(CO1)CO2	110 to 112
c1cc(N2CCCCC2)ccc1OC12CC3CC(CC(C3)C1)C2	72 to 73.5
CC1CNc2c([N+](=O)[O-])cnn2C1 (stereo not given)	190 to 192
COc1ccc2cc(-c3csc(Cc4c(Cl)cccc4Cl)n3)ccc2c1	136 to 138
Fc1cc(CC2(Cc3ccnc(F)c3)c3ccccc3-c3nccnc32)ccn1	119 to 120
O=C(NCc1ccc(Cl)cc1)c1cn2c(CCO)cc3cc(CN4CCOCC4)cc(c1=O)c32	169 to 172
Nc1ccc([C@@H](O)CNC[C@@H]2CCc3cc(S(=O)(=O)Nc4ccc(-n5nnn(CCCC6CCCC6)c5=O)cc4)ccc3O2)cn1	99.3 to 99.7
Cc1cccc2c(Nc3cccc(OCCN(CCCl)CCCl)c3)c3cccc(C(=O)NCCN(C)C)c3nc12	129 to 130
O=C1Nc2cccc(-c3ccoc3)c2C12COc1cc3c(cc12)OCO3 (stereo not given)	230 to 231
CC12CCC3C(CCC4CC(CC(=O)O)CCC43C)C1CCC2CC=O (stereo not given)	189 to 192

SMILES	melting point [°C]
C#CCN(C)Cc1nc2ccc(OC(F)(F)F)cc2s1	117 to 120
C#CC1(O)C=CC2C3CCC4=CC(=O)CC(OC(C)=O)C4C3CCC21CC (stereo not given)	123 to 126
Cc1cc(-c2ccc3c(C(N)=O)nn(-c4ccc(S(N)(=O)=O)cc4)c3c2)ccc1F	300 to 302
O=C(NCc1ccc(Cl)cc1)c1cn(Cc2cccc(F)c2)c2sc(CN3CCOCC3)cc2c1=O	214 to 215
CCc1nc2c(C)nc(C)nc2n1-c1ccc(CCOC(=O)NS(=O)(=O)c2ccc(C)cc2)cc1	162
CC(C)(c1ccc(Oc2cccc(N)c2)cc1)c1ccc(C(C)(C)c2ccc(Oc3cccc(N)c3)cc2)cc1	138 to 140
CCc1nc(=O)n(C)c2sccc12	156
ClC1=Nc2cc(Cl)ccc2Sc2cscc21	234 to 235
COc1ccc(C2=NN(C3CCOCC3)C(=O)[C@H]3CC=CC[C@@H]23)cc1OC (relative stereo)	175 to 177
O=C1CCCNC12CCCCC2	55
Cc1noc(NS(=O)(=O)c2cc(F)ccc2F)c1Br	123 to 125
CCn1cc(C(=O)O)c(=O)c2cc(F)c(Cl)nc21	265 to 267
Cc1ccc(S(=O)(=O)OC[C@H]2CC[C@H](C#N)CC2)cc1	84 to 85
CC1CC(c2c[nH]c(-c3ccc(F)cc3)c2-c2ccncc2)CCN1 (stereo not given)	198 to 205
CCc1ccc2c(c1)C=Cc1oc(C)nc1C2c1cn(Cc2nc(C(=O)O)co2)c(=O)[nH]c1=S (stereo not given)	210
COc1nc2cc(Cl)c(C)c(NS(C)(=O)=O)c2nc1OC	228 to 229
CCOc1ccc(OCCCCCN2CCN(c3nccs3)CC2)cc1	79 to 81
Nc1cc(Oc2ccc3c(C(=O)Nc4ccc(F)c(C(F)(F)F)c4)cccc3c2)ncn1	224 to 225
CCCCCCCCC(CCC(=O)O)(CCC(=O)O)C(C)=O	69 to 71
Cc1c(Br)ccc(N)c1S(C)(=O)=O	103 to 106
Cc1csc(CNC(=O)c2sc(N3CCN(CC4CC4(F)F)C3=O)nc2C)n1 (stereo not given)	157 to 159
CCOC(=O)c1cnc2sc3c(n12)CCCCCC3	79 to 81

Continued, values first:

melting point [°C]	SMILES
225	O=C(O)Cc1c(C(=O)c2cc3c(cn2)CCCC3)[nH]c2cc(Cl)ccc12
76	C[Si](C)(C)c1ccc(O)cc1
130 to 133	Cc1ccc(S(=O)(=O)NC[C@H](F)Cc2ccccc2)cc1
260 to 263	CC(C)(C(=O)O)n1c(=O)[nH]c2cc(Cl)ccc2c1=O
145	O=C(NCc1cccc2nc(N[C@@H]3CCc4ccccc43)ccc12)c1ccc(F)cc1
183 to 185	O=[N+]([O-])c1cc(C(F)(F)F)cc2c1nc(C(F)(F)F)n2S(=O)(=O)c1ccccc1
194 to 196	COc1ccc(C2=NNC(=O)Cc3cc4c(cc32)OCO4)cc1
247 to 249	Cc1nc2ccccc2cc1NC(=O)N1CCN(c2cc(Cl)cc(Cl)c2)CC1
61 to 62	O=C(CCCCCCOc1ccc(O)cc1)C(F)(F)F
170 to 172	CCCOc1nc2cccc(C(=O)O)c2n1Cc1ccc(-c2ccccc2-c2nc(=O)o[nH]2)cc1
216 to 218	COc1ccc(C)cc1NC(=O)Nc1ccc2c(c1)C=CN(C(=O)Nc1c(C)cccc1Cl)C2
169 to 173	O=[N+]([O-])c1oc2ccc(CCO)cc2c1-c1ccccc1
145 to 148	CN(C)CCOC1=C(c2ccccc2)CN(Cc2ccco2)C1=O
78 to 80	Cn1ncc(NCCN(CCOc2cccc3c2OCCO3)Cc2ccccc2)c(Cl)c1=O
150 to 151	COc1ccccc1NC(=O)N1CCC(=O)C(C(c2ccccc2)c2ccccc2)C1 (stereo not given)
122 to 124	O=[N+]([O-])c1ccc(C(O)C(CO)N2CCC(Cc3ccccc3)CC2)cc1 (stereo not given)
149 to 150	CCOC(=O)NC1(c2ccc(C(C)C)cc2OC)C(=O)c2ccccc2C1=O
56 to 58	Cc1cccc2c1O[C@@H](CN1CCC(CNC(=O)c3cccnc3N)CC1)CO2
174 to 176	CCCOC(=O)N1CCN(C(=O)c2cc(S(=O)(=O)N(C)C)ccc2N)CC1
79 to 83	COc1ccc(NC(=S)C2CC2)cn1
75 to 76	CCOC(=O)/C=C/c1cc(OC)c(O)c2c(CC)cccc12
142 to 144	O=C(Cc1ccc(-c2ccccc2)cc1)NCCc1ccc(OCc2ccccc2)c(OCc2ccccc2)c1
90 to 91	CCNc1ccc(Cl)cc1[N+](=O)[O-]
166 to 167	CCCCc1c(/C=C/C(=O)O)cc(OC)c2ccccc12
138 to 140	Fc1ccc(NN=Cc2cccs2)cc1
74.5 to 75.5	CC(c1ccc(-c2ccccc2)c(F)c1)c1csc(NCCc2ccccc2)n1 (stereo not given)
65 to 66.5	Nc1ccc(Oc2cccc(C(F)(F)F)c2Cl)cc1
50 to 52	CCC1Cc2ccc(C)cc2C1=O (stereo not given)

melting point [°C]	SMILES
204	Cn1nc(-c2ccc(Cl)cc2F)cc1O
130 to 131	COc1cc(C(=O)O)ccc1OCCCCCOc1nc2ccccc2s1
112	COC(=O)c1ccc(OCC(C)NCC(O)c2cccc(Cl)c2)c(C(=O)OC)c1 (stereo not given)
103 to 104	COC(=O)CC[C@@H](NC(=O)[C@H](COCc1ccccc1)NC(=O)OC(C)(C)C)C(N)=O
114 to 116	CC(C)(C)OC(=O)N1CCc2c(n(CCCc3ccccc3)c3ccc(Cl)c(Cl)c23)CC1
97 to 98	CCN(CC)CCNC(=O)N1CCc2cc(OC)c(OC)cc2C1c1ccccc1 (stereo not given)
> 230	O=C(O)Cn1c(=O)c(=O)[nH]c2ccc3ccc(-n4ccc(CNC(=O)Nc5ccccc5)c4)cc3c21
139 to 140	O=C(O)CCC(O)c1ccc(-c2ccccc2)cc1 (stereo not given)
122	C(=Nc1ncc[nH]1)c1ccccc1
97 to 98	CCCc1sc(-c2ccccc2)nc1OC(=O)NC(C)(C)C
86 to 87	O=C(NCc1cc(C(F)(F)F)cc(C(F)(F)F)c1)c1ccccc1-c1ccccc1
142 to 144	COc1cccc(C2C(=O)c3ccccc3C2=O)c1
186 to 188	CC(=NNc1ccc([N+](=O)[O-])cc1)c1ccccc1
206 to 208	Cc1nn(-c2cc(C(F)(F)F)ccc2Cl)cc1C(=O)O
58 to 60	CON(O)C(=O)c1ccccc1
79 to 80	COc1ccccc1Oc1c(Cl)ncnc1Cl
108 to 110	CCn1c2ccccc2c2c(N)c(C(=O)OC)c(C)nc21
139 to 141	Nc1c(CC(=O)O)cccc1S(=O)(=O)c1ccc(Cl)cc1
189 to 191	CCOC(=O)n1c(C(=O)c2cccc(Cl)c2)c(NC(=O)CC)c2ccc(Cl)cc21
148 to 151	Cc1cccc(C2(CNC(=O)Nc3c(C(C)C)cccc3C(C)C)CCC2)c1
71 to 72	CN(CC1CCCCC1)C(=O)c1ccc2nonc2c1
162	COc1ccc(-c2ccccc2-c2ccc(S(C)(=O)=O)cc2)cc1Cl
110 to 113	CC(=O)N1CCc2ccc(C(=O)c3ccccc3)cc2C1
67 to 69	COC(=O)c1nc(N)ccc1Oc1nc(OC)cc(OC)n1
202 to 203	COc1ccc2c(c1)Sc1c(cc(OC)c(OC(=O)c3ccccc3)c1Br)N2
129 to 131	CC(Oc1ccc(Oc2ncc(Cl)cc2F)cc1)C(=O)NC=C(C#N)C#N (stereo not given)
68 to 69.5	CC(C)(C)C(=O)COc1ccc(Cl)cn1
